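In this assay, cells in 96-well plates receive the compound at five concentrations for 48 hours. Endpoints are linearly interpolated between the surrounding concentrations. At the TGI there is no net growth.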
Experiments:
Test in all cases: DTP human tumour cell line panel, 48 h
A498 renal = system: A498 renal
A549 NSCLC = system: A549 NSCLC
ACHN renal = system: ACHN renal
CCRF-CEM leukemia = system: CCRF-CEM leukemia
COLO 205 colon = system: COLO 205 colon
DU-145 prostate = system: DU-145 prostate
HCC-2998 colon = system: HCC-2998 colon
HCT-116 colon = system: HCT-116 colon
HCT-15 colon = system: HCT-15 colon
HOP-92 NSCLC = system: HOP-92 NSCLC
HS 578T breast = system: HS 578T breast
HT29 colon = system: HT29 colon
K-562 leukemia = system: K-562 leukemia
KM12 colon = system: KM12 colon
LOX IMVI melanoma = system: LOX IMVI melanoma
M14 melanoma = system: M14 melanoma
MCF7 breast = system: MCF7 breast
MDA-MB-231 breast = system: MDA-MB-231 breast
MDA-MB-435 = system: MDA-MB-435
MDA-N = system: MDA-N
MOLT-4 leukemia = system: MOLT-4 leukemia
NCI-H226 lung = system: NCI-H226 lung
NCI-H23 lung = system: NCI-H23 lung
NCI-H460 lung = system: NCI-H460 lung
NCI-H522 lung = system: NCI-H522 lung
NCI/ADR-RES ovarian = system: NCI/ADR-RES ovarian
OVCAR-3 ovarian = system: OVCAR-3 ovarian
OVCAR-4 ovarian = system: OVCAR-4 ovarian
OVCAR-8 ovarian = system: OVCAR-8 ovarian
PC-3 prostate = system: PC-3 prostate
RXF 393 renal = system: RXF 393 renal
SF-268 CNS = system: SF-268 CNS
SF-295 CNS = system: SF-295 CNS
SK-MEL-28 melanoma = system: SK-MEL-28 melanoma
SK-MEL-5 melanoma = system: SK-MEL-5 melanoma
SK-OV-3 ovarian = system: SK-OV-3 ovarian
SN12C renal = system: SN12C renal
SNB-19 CNS = system: SNB-19 CNS
SNB-75 CNS = system: SNB-75 CNS
SR leukemia = system: SR leukemia
SW-620 colon = system: SW-620 colon
T-47D breast = system: T-47D breast
TK-10 renal = system: TK-10 renal
U251 CNS = system: U251 CNS
UACC-257 melanoma = system: UACC-257 melanoma
UO-31 renal = system: UO-31 renal
786-0 renal = system: 786-0 renal
CAKI-1 renal = system: CAKI-1 renal
EKVX NSCLC = system: EKVX NSCLC
HL-60(TB) leukemia = system: HL-60(TB) leukemia
HOP-62 NSCLC = system: HOP-62 NSCLC
IGROV1 ovarian = system: IGROV1 ovarian
MALME-3M melanoma = system: MALME-3M melanoma
OVCAR-5 ovarian = system: OVCAR-5 ovarian
RPMI-8226 leukemia = system: RPMI-8226 leukemia
SF-539 CNS = system: SF-539 CNS
SK-MEL-2 melanoma = system: SK-MEL-2 melanoma
UACC-62 melanoma = system: UACC-62 melanoma

CCCCCCCCCCCC1=NCCN1
TGI (A498 renal): 43.2 µM | TGI (A549 NSCLC): > 100 µM | TGI (ACHN renal): > 100 µM | TGI (CCRF-CEM leukemia): 75.4 µM | TGI (COLO 205 colon): 35.4 µM | TGI (DU-145 prostate): > 100 µM | TGI (HCC-2998 colon): 39 µM | TGI (HCT-116 colon): > 100 µM | TGI (HCT-15 colon): 32.7 µM | TGI (HOP-92 NSCLC): > 100 µM | TGI (HS 578T breast): > 100 µM | TGI (HT29 colon): > 100 µM | TGI (K-562 leukemia): > 100 µM | TGI (KM12 colon): > 100 µM | TGI (LOX IMVI melanoma): 22.9 µM | TGI (M14 melanoma): > 100 µM | TGI (MCF7 breast): > 100 µM | TGI (MDA-MB-231 breast): 68.9 µM | TGI (MDA-MB-435): > 100 µM | TGI (MDA-N): > 100 µM | TGI (MOLT-4 leukemia): 60.5 µM | TGI (NCI-H226 lung): > 100 µM | TGI (NCI-H23 lung): > 100 µM | TGI (NCI-H460 lung): > 100 µM | TGI (NCI-H522 lung): 67.5 µM | TGI (NCI/ADR-RES ovarian): > 100 µM | TGI (OVCAR-3 ovarian): > 100 µM | TGI (OVCAR-4 ovarian): 38.7 µM | TGI (OVCAR-8 ovarian): > 100 µM | TGI (PC-3 prostate): 44.1 µM | TGI (RXF 393 renal): > 100 µM | TGI (SF-268 CNS): > 100 µM | TGI (SF-295 CNS): > 100 µM | TGI (SK-MEL-28 melanoma): > 100 µM | TGI (SK-MEL-5 melanoma): > 100 µM | TGI (SK-OV-3 ovarian): > 100 µM | TGI (SN12C renal): > 100 µM | TGI (SNB-19 CNS): > 100 µM | TGI (SNB-75 CNS): 92.3 µM | TGI (SR leukemia): 48 µM | TGI (SW-620 colon): > 100 µM | TGI (T-47D breast): > 100 µM | TGI (TK-10 renal): > 100 µM | TGI (U251 CNS): > 100 µM | TGI (UACC-257 melanoma): > 100 µM | TGI (UO-31 renal): 95.1 µM

Cc1occc(=O)c1O
TGI (786-0 renal): > 100 µM | TGI (A549 NSCLC): > 100 µM | TGI (ACHN renal): > 100 µM | TGI (CAKI-1 renal): > 100 µM | TGI (CCRF-CEM leukemia): > 100 µM | TGI (COLO 205 colon): > 100 µM | TGI (DU-145 prostate): > 100 µM | TGI (EKVX NSCLC): > 100 µM | TGI (HCC-2998 colon): > 100 µM | TGI (HCT-116 colon): > 100 µM | TGI (HCT-15 colon): 28.7 µM | TGI (HL-60(TB) leukemia): > 100 µM | TGI (HOP-62 NSCLC): > 100 µM | TGI (HOP-92 NSCLC): > 100 µM | TGI (HS 578T breast): > 100 µM | TGI (HT29 colon): > 100 µM | TGI (IGROV1 ovarian): > 100 µM | TGI (K-562 leukemia): > 100 µM | TGI (KM12 colon): > 100 µM | TGI (LOX IMVI melanoma): > 100 µM | TGI (M14 melanoma): > 100 µM | TGI (MALME-3M melanoma): > 100 µM | TGI (MCF7 breast): > 100 µM | TGI (MDA-MB-231 breast): 16.4 µM | TGI (MDA-MB-435): > 100 µM | TGI (MDA-N): > 100 µM | TGI (MOLT-4 leukemia): > 100 µM | TGI (NCI-H226 lung): > 100 µM | TGI (NCI-H23 lung): > 100 µM | TGI (NCI-H460 lung): > 100 µM | TGI (NCI-H522 lung): > 100 µM | TGI (NCI/ADR-RES ovarian): > 100 µM | TGI (OVCAR-3 ovarian): > 100 µM | TGI (OVCAR-4 ovarian): > 100 µM | TGI (OVCAR-5 ovarian): > 100 µM | TGI (OVCAR-8 ovarian): > 100 µM | TGI (PC-3 prostate): > 100 µM | TGI (RPMI-8226 leukemia): > 100 µM | TGI (SF-268 CNS): > 100 µM | TGI (SF-295 CNS): > 100 µM | TGI (SF-539 CNS): > 100 µM | TGI (SK-MEL-2 melanoma): > 100 µM | TGI (SK-MEL-28 melanoma): > 100 µM | TGI (SK-MEL-5 melanoma): > 100 µM | TGI (SN12C renal): 24.8 µM | TGI (SNB-19 CNS): > 100 µM | TGI (SNB-75 CNS): > 100 µM | TGI (SR leukemia): > 100 µM | TGI (SW-620 colon): > 100 µM | TGI (T-47D breast): > 100 µM | TGI (TK-10 renal): > 100 µM | TGI (U251 CNS): > 100 µM | TGI (UACC-257 melanoma): > 100 µM | TGI (UO-31 renal): > 100 µM

CN(C)C=Nc1ccc2nonc2c1
TGI (786-0 renal): > 100 µM | TGI (A498 renal): > 100 µM | TGI (A549 NSCLC): > 100 µM | TGI (ACHN renal): > 100 µM | TGI (CAKI-1 renal): > 100 µM | TGI (CCRF-CEM leukemia): > 100 µM | TGI (COLO 205 colon): > 100 µM | TGI (DU-145 prostate): > 100 µM | TGI (EKVX NSCLC): > 100 µM | TGI (HCC-2998 colon): > 100 µM | TGI (HCT-116 colon): > 100 µM | TGI (HCT-15 colon): > 100 µM | TGI (HL-60(TB) leukemia): > 100 µM | TGI (HOP-62 NSCLC): > 100 µM | TGI (HS 578T breast): > 100 µM | TGI (HT29 colon): > 100 µM | TGI (IGROV1 ovarian): > 100 µM | TGI (K-562 leukemia): > 100 µM | TGI (KM12 colon): > 100 µM | TGI (M14 melanoma): > 100 µM | TGI (MALME-3M melanoma): > 100 µM | TGI (MCF7 breast): > 100 µM | TGI (MDA-MB-231 breast): > 100 µM | TGI (MDA-MB-435): > 100 µM | TGI (MDA-N): > 100 µM | TGI (MOLT-4 leukemia): > 100 µM | TGI (NCI-H226 lung): > 100 µM | TGI (NCI-H23 lung): > 100 µM | TGI (NCI-H460 lung): > 100 µM | TGI (NCI-H522 lung): > 100 µM | TGI (NCI/ADR-RES ovarian): > 100 µM | TGI (OVCAR-3 ovarian): > 100 µM | TGI (OVCAR-4 ovarian): > 100 µM | TGI (OVCAR-5 ovarian): > 100 µM | TGI (OVCAR-8 ovarian): > 100 µM | TGI (PC-3 prostate): > 100 µM | TGI (RPMI-8226 leukemia): > 100 µM | TGI (RXF 393 renal): > 100 µM | TGI (SF-268 CNS): > 100 µM | TGI (SF-295 CNS): > 100 µM | TGI (SF-539 CNS): > 100 µM | TGI (SK-MEL-2 melanoma): > 100 µM | TGI (SK-MEL-28 melanoma): > 100 µM | TGI (SK-MEL-5 melanoma): > 100 µM | TGI (SK-OV-3 ovarian): > 100 µM | TGI (SN12C renal): > 100 µM | TGI (SNB-19 CNS): > 100 µM | TGI (SNB-75 CNS): > 100 µM | TGI (SR leukemia): > 100 µM | TGI (SW-620 colon): > 100 µM | TGI (T-47D breast): > 100 µM | TGI (TK-10 renal): > 100 µM | TGI (UACC-257 melanoma): > 100 µM | TGI (UACC-62 melanoma): > 100 µM | TGI (UO-31 renal): > 100 µM

Reference: PubChem BioAssay (NCI)
